Test results reported in ChEMBL document CHEMBL1201862, “PubChem BioAssay data set” (2004).
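Cells were grown in 96-well plates and exposed to each compound for 48 hours at five concentrations; endpoints were interpolated linearly between bracketing concentrations, or set to the highest concentration if not reached. At the GI50, growth is halved.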 Calls of active or inactive are those of the source. Rule as the data show it: active = GI50 up to about 1.1 µM and inactive = higher.

Assays:
Assay in all cases: NCI-60 cell line screen, 48 h
PC-3 = system: PC-3
SK-OV-3 = system: SK-OV-3
Hs-578T = system: Hs-578T
IGROV-1 = system: IGROV-1
786-0 = system: 786-0
LOX IMVI = system: LOX IMVI
SK-MEL-5 = system: SK-MEL-5
MOLT-4 = system: MOLT-4
UACC-257 = system: UACC-257
UACC-62 = system: UACC-62
CCRF-CEM = system: CCRF-CEM
TK-10 = system: TK-10
OVCAR-3 = system: OVCAR-3
SNB-19 = system: SNB-19
KM12 = system: KM12
M14 = system: M14
HT-29 = system: HT-29
OVCAR-8 = system: OVCAR-8
NCI/ADR-RES = system: NCI/ADR-RES
SN12C = system: SN12C

Row | Compound | GI50 (PC-3) | GI50 (SK-OV-3) | GI50 (Hs-578T) | GI50 (IGROV-1) | GI50 (786-0) | GI50 (LOX IMVI) | GI50 (SK-MEL-5) | GI50 (MOLT-4) | GI50 (UACC-257) | GI50 (UACC-62) | GI50 (CCRF-CEM) | GI50 (TK-10) | GI50 (OVCAR-3) | GI50 (SNB-19) | GI50 (KM12) | GI50 (M14) | GI50 (HT-29) | GI50 (OVCAR-8) | GI50 (NCI/ADR-RES) | GI50 (SN12C)
1 | COc1ccccc1N=C(S)Nc1ccccn1 | > 100 µM (inactive) | > 100 µM (inactive) | 84.7 µM (inactive) | > 100 µM (inactive) | 56.5 µM (inactive) | > 100 µM (inactive) | > 100 µM (inactive) | > 100 µM (inactive) | > 100 µM (inactive) | > 100 µM (inactive) | > 100 µM (inactive) | 64.1 µM (inactive) | > 100 µM (inactive) | 73.8 µM (inactive) | > 100 µM (inactive) | > 100 µM (inactive) | > 100 µM (inactive) | 99.8 µM (inactive) | > 100 µM (inactive) | 
2 | CN(O)C(=S)c1ccccc1 | 3.23 µM (inactive) | 11.3 µM (inactive) | > 20.2 µM (inactive) | 3.52 µM (inactive) | 1.38 µM (inactive) | 1.57 µM (inactive) | 1.7 µM (inactive) | 0.325 µM (active) | 13.1 µM (inactive) | 1.85 µM (inactive) | 0.105 µM (active) | > 78.2 µM (inactive) | 2.45 µM (inactive) | 30.2 µM (inactive) | 5.86 µM (inactive) | 3.98 µM (inactive) | 0.312 µM (active) | 2.47 µM (inactive) | 0.746 µM (active) | 5.18 µM (inactive)
3 | O=c1c2cc(-c3ccccc3)sc2nc2n1N=C(c1ccc(Cl)cc1)CS2 | > 100 µM (inactive) | > 100 µM (inactive) | > 100 µM (inactive) | > 100 µM (inactive) | > 100 µM (inactive) | > 100 µM (inactive) | > 100 µM (inactive) | > 100 µM (inactive) | > 100 µM (inactive) | > 100 µM (inactive) | > 100 µM (inactive) | > 100 µM (inactive) | > 100 µM (inactive) |  | > 100 µM (inactive) |  | > 100 µM (inactive) | > 100 µM (inactive) | > 100 µM (inactive) | > 100 µM (inactive)
4 | Cc1cc(C2(c3cc(C)c(O)c4ncccc34)OC(=O)c3ccccc32)c2cccnc2c1O | 0.265 µM (active) | 4.52 µM (inactive) | 0.0127 µM (active) | 0.0378 µM (active) | 0.0178 µM (active) | 0.00601 µM (active) | 0.0231 µM (active) | 0.522 µM (active) | 2.77 µM (inactive) | 0.0158 µM (active) | 0.01 µM (active) | > 10 µM (inactive) | 0.0056 µM (active) | 0.0174 µM (active) | 0.0668 µM (active) | 0.0625 µM (active) | 0.0406 µM (active) | 0.00615 µM (active) | 0.0344 µM (active) | 0.0353 µM (active)
5 | COC(=O)[C@H](CCSC)NC(=O)N[C@H](C)c1ccccc1 | > 100 µM (inactive) | > 100 µM (inactive) | > 100 µM (inactive) | > 100 µM (inactive) | > 100 µM (inactive) | > 100 µM (inactive) | > 100 µM (inactive) | > 100 µM (inactive) | 86.7 µM (inactive) | > 100 µM (inactive) | > 100 µM (inactive) | > 100 µM (inactive) | > 100 µM (inactive) | > 100 µM (inactive) | > 100 µM (inactive) | > 100 µM (inactive) | > 100 µM (inactive) | > 100 µM (inactive) | 60.7 µM (inactive) | > 100 µM (inactive)
6 | CC1CC(Br)C(=O)O1 (stereo not drawn) | > 100 µM (inactive) | > 100 µM (inactive) | > 100 µM (inactive) | > 100 µM (inactive) |  | > 100 µM (inactive) | > 100 µM (inactive) | > 100 µM (inactive) | > 100 µM (inactive) | > 100 µM (inactive) | > 100 µM (inactive) | > 100 µM (inactive) | > 100 µM (inactive) | > 100 µM (inactive) | > 100 µM (inactive) | > 100 µM (inactive) | > 100 µM (inactive) | > 100 µM (inactive) | > 100 µM (inactive) | > 100 µM (inactive)
7 | CC1=C(C)Cc2c(O)ccc(O)c2C1 | 15.2 µM (inactive) | 76.2 µM (inactive) | 17.7 µM (inactive) |  |  | 19.9 µM (inactive) | 14.6 µM (inactive) | 19.3 µM (inactive) | 18.2 µM (inactive) | 16.5 µM (inactive) | 3.12 µM (inactive) | 20.7 µM (inactive) | 20.4 µM (inactive) | > 100 µM (inactive) | 31.3 µM (inactive) | 16.2 µM (inactive) | 14.1 µM (inactive) | 16.1 µM (inactive) | 36.5 µM (inactive) | 21.8 µM (inactive)
8 | O=C1Nc2ccc(Br)cc2/C1=N/S(=O)(=O)O | 13.3 µM (inactive) | 79.8 µM (inactive) | > 100 µM (inactive) | 55.2 µM (inactive) | 25.4 µM (inactive) | 10 µM (inactive) | 16.1 µM (inactive) | 22 µM (inactive) | 15.9 µM (inactive) | 18.7 µM (inactive) | 6.85 µM (inactive) | 14.5 µM (inactive) | 40.7 µM (inactive) | > 100 µM (inactive) | 28.4 µM (inactive) | 38.5 µM (inactive) | 40.1 µM (inactive) | 24.4 µM (inactive) | 29.4 µM (inactive) | 18.4 µM (inactive)
9 | O=C1c2ccccc2C(=O)c2c1ccc1c3ccccc3n(-c3ccccc3)c21 | 28.1 µM (inactive) | > 100 µM (inactive) | 15 µM (inactive) | 25.4 µM (inactive) | 21.3 µM (inactive) | 14.5 µM (inactive) | 16.1 µM (inactive) | 2.3 µM (inactive) | 20.7 µM (inactive) | 14.7 µM (inactive) | 2.85 µM (inactive) | 40.8 µM (inactive) | 19.5 µM (inactive) | 75.5 µM (inactive) | 29.2 µM (inactive) | 12.4 µM (inactive) | 16.7 µM (inactive) | 27.2 µM (inactive) | 39.7 µM (inactive) | 17.8 µM (inactive)
10 | CCN(CC)C(=O)Cn1c(-c2ccccc2)cc2ccccc21 | 22.9 µM (inactive) | 40.8 µM (inactive) | 33.5 µM (inactive) | 60.8 µM (inactive) | 45.1 µM (inactive) | 25.4 µM (inactive) | 15.6 µM (inactive) | 14.5 µM (inactive) | 41.9 µM (inactive) | > 10 µM (inactive) | 24.3 µM (inactive) | 34.9 µM (inactive) | > 100 µM (inactive) | 42.8 µM (inactive) | 38.3 µM (inactive) | 87.3 µM (inactive) | 29 µM (inactive) | 35.9 µM (inactive) | 23.4 µM (inactive) | 97.3 µM (inactive)
11 | CC/C(Cl)=N\OC(=O)Nc1ccc(OC)c(C)c1 | 28.8 µM (inactive) | 58.6 µM (inactive) | 16.9 µM (inactive) | 16.4 µM (inactive) | 12.5 µM (inactive) | 10.9 µM (inactive) | 18.7 µM (inactive) | 5.74 µM (inactive) | 16.5 µM (inactive) | 15 µM (inactive) | 4.93 µM (inactive) | 20.6 µM (inactive) | 16.4 µM (inactive) | 42.1 µM (inactive) | 23.8 µM (inactive) | 17.9 µM (inactive) | 17.4 µM (inactive) | 17.5 µM (inactive) | 15 µM (inactive) | 15.9 µM (inactive)
12 | CC(=O)c1ccc(Nc2c3ccccc3nc3occc23)cc1 | < 0.01 µM (active) | 0.0402 µM (active) | 0.0152 µM (active) | < 0.01 µM (active) | < 0.01 µM (active) | < 0.0143 µM (active) | < 0.0219 µM (active) | < 0.01 µM (active) | 17.1 µM (inactive) | < 0.01 µM (active) | < 0.01 µM (active) | 0.0371 µM (active) | < 0.01 µM (active) | < 0.0168 µM (active) | < 0.01 µM (active) | < 0.01 µM (active) | < 0.01 µM (active) | 0.0174 µM (active) | < 0.01 µM (active) | 0.0172 µM (active)
13 | CN(C)CCNC(=O)c1cccc2nc3c(nc12)-c1ccccc1C3=O | 17.6 µM (inactive) | 26.7 µM (inactive) | 18.5 µM (inactive) | 20.9 µM (inactive) | 8.11 µM (inactive) | 2.83 µM (inactive) | 12.1 µM (inactive) | 0.721 µM (active) | 13.4 µM (inactive) | 19.1 µM (inactive) | 2.56 µM (inactive) | 18.6 µM (inactive) | 16.6 µM (inactive) | 18.3 µM (inactive) | 10 µM (inactive) | 15.8 µM (inactive) | 6.76 µM (inactive) | 16.4 µM (inactive) | 12.4 µM (inactive) | 11 µM (inactive)
14 | CCO[C@H]1O[C@@H]2OC3(C)CCC4[C@H](C)CCC([C@H]1C)[C@]42OO3 (stereo partly drawn) | 0.729 µM (active) | > 100 µM (inactive) | 29.9 µM (inactive) | > 73.8 µM (inactive) | 57.5 µM (inactive) | 24.2 µM (inactive) | 16 µM (inactive) | 7.91 µM (inactive) |  | > 67.1 µM (inactive) | 3.44 µM (inactive) | > 95.5 µM (inactive) | 15.5 µM (inactive) | > 100 µM (inactive) | > 53.2 µM (inactive) | 53.5 µM (inactive) | 61.2 µM (inactive) | 0.881 µM (active) | 23 µM (inactive) | 68.2 µM (inactive)
